Measurements reported in ChEMBL document CHEMBL1201862, “PubChem BioAssay data set” (2004).
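In this assay, cells in 96-well plates receive the compound at five concentrations for 48 hours. Endpoints are linearly interpolated between the surrounding concentrations. GI50 is the concentration that inhibits growth by half.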 Active and inactive are the calls of the source. Cut-off read from the data, not from the text of the source: active = GI50 up to about 1.1 µM and inactive = higher.

Tests used:
Experiment in all cases: NCI anticancer screen, dose series, 48 h
M14 = system: M14
KM12 = system: KM12
RPMI-8226 = system: RPMI-8226
SK-MEL-2 = system: SK-MEL-2
NCI-H522 = system: NCI-H522
UACC-257 = system: UACC-257
LOX IMVI = system: LOX IMVI
SNB-19 = system: SNB-19
SW-620 = system: SW-620
NCI-H23 = system: NCI-H23
SF-539 = system: SF-539
SR = system: SR
OVCAR-8 = system: OVCAR-8
K562 = system: K562
PC-3 = system: PC-3
Malme-3M = system: Malme-3M
SK-MEL-28 = system: SK-MEL-28
IGROV-1 = system: IGROV-1
MOLT-4 = system: MOLT-4
NCI-H226 = system: NCI-H226

Row | Structure (SMILES) | GI50 (M14) | GI50 (KM12) | GI50 (RPMI-8226) | GI50 (SK-MEL-2) | GI50 (NCI-H522) | GI50 (UACC-257) | GI50 (LOX IMVI) | GI50 (SNB-19) | GI50 (SW-620) | GI50 (NCI-H23) | GI50 (SF-539) | GI50 (SR) | GI50 (OVCAR-8) | GI50 (K562) | GI50 (PC-3) | GI50 (Malme-3M) | GI50 (SK-MEL-28) | GI50 (IGROV-1) | GI50 (MOLT-4) | GI50 (NCI-H226)
1 | Nc1ccc2c(c1)C(=O)c1ccccc1-2 | 57.4 µM (inactive) | 62.5 µM (inactive) | > 100 µM (inactive) | > 100 µM (inactive) | > 100 µM (inactive) | > 100 µM (inactive) | 73.1 µM (inactive) | > 100 µM (inactive) | 68.1 µM (inactive) | > 100 µM (inactive) | > 100 µM (inactive) | 23.6 µM (inactive) | 54.8 µM (inactive) | 51.6 µM (inactive) | > 100 µM (inactive) | > 100 µM (inactive) | > 100 µM (inactive) | > 100 µM (inactive) | 15.7 µM (inactive) | > 100 µM (inactive)
2 | COc1ccc(N2C(N)=C(C#N)C(C#N)(C#N)C2c2cccc([N+](=O)[O-])c2)cc1 (stereo not given) | 17.3 µM (inactive) | 18.9 µM (inactive) | 11.6 µM (inactive) | 18.1 µM (inactive) | 7.14 µM (inactive) | 13.7 µM (inactive) | 13.5 µM (inactive) | 17.9 µM (inactive) | 11.2 µM (inactive) | 15.5 µM (inactive) | 14.7 µM (inactive) | 8.47 µM (inactive) | 17.9 µM (inactive) | 2.92 µM (inactive) | 17.1 µM (inactive) | 6.73 µM (inactive) | 8.57 µM (inactive) | 14.7 µM (inactive) | 3.78 µM (inactive) | 19.8 µM (inactive)
3 | O=C1c2ccccc2CN1c1ccc(O)cc1 | > 100 µM (inactive) | > 100 µM (inactive) | > 100 µM (inactive) | > 100 µM (inactive) | > 100 µM (inactive) | > 100 µM (inactive) | > 100 µM (inactive) | > 100 µM (inactive) | > 100 µM (inactive) | > 100 µM (inactive) | > 100 µM (inactive) | > 100 µM (inactive) | > 100 µM (inactive) | > 100 µM (inactive) | > 100 µM (inactive) | > 100 µM (inactive) | > 100 µM (inactive) | > 100 µM (inactive) | > 100 µM (inactive) | > 100 µM (inactive)
4 | Cc1cn(C2C=CC(COP(=O)(OCc3ccc([N+](=O)[O-])o3)N(C)CCCCCl)O2)c(=O)[nH]c1=O (stereo not given) | 4.69 µM (inactive) | 6.68 µM (inactive) | 2.69 µM (inactive) | 3.48 µM (inactive) | 1.85 µM (inactive) | 5.55 µM (inactive) | 3.58 µM (inactive) | 6.58 µM (inactive) | 10.1 µM (inactive) | 3.05 µM (inactive) | 3.72 µM (inactive) | 1.89 µM (inactive) | 13.9 µM (inactive) | 2.08 µM (inactive) | 12.8 µM (inactive) | 1.79 µM (inactive) | 10.6 µM (inactive) | 3.03 µM (inactive) | 10.1 µM (inactive) | 10.6 µM (inactive)
5 | O=C1/C(=C/c2ccccc2)CN(C(=O)CCN2CCCC2)C/C1=C\c1ccccc1 | 1.74 µM (inactive) | 0.607 µM (active) | 0.253 µM (active) | 2.77 µM (inactive) | 1.31 µM (inactive) | 2.45 µM (inactive) | 0.687 µM (active) | 2.51 µM (inactive) | 0.23 µM (active) | 1.8 µM (inactive) | 1.85 µM (inactive) | 0.219 µM (active) | 1.53 µM (inactive) | 0.287 µM (active) | 0.724 µM (active) | 3.03 µM (inactive) | 1.62 µM (inactive) | 2.67 µM (inactive) | 0.356 µM (active) | 6 µM (inactive)
6 | Cc1ccc(-c2c3nc(c(-c4ccc(C)cc4)c4ccc([nH]4)c(-c4ccc(OCC5COC(C)(C)O5)cc4)c4nc(c(-c5ccc(C)cc5)c5ccc2[nH]5)C=C4)C=C3)cc1 (stereo not given) | > 31.6 µM (inactive) | > 31.6 µM (inactive) | > 100 µM (inactive) | > 31.6 µM (inactive) | > 31.6 µM (inactive) | > 31.6 µM (inactive) | > 31.6 µM (inactive) | > 31.6 µM (inactive) | > 31.6 µM (inactive) | > 31.6 µM (inactive) | > 31.6 µM (inactive) | > 31.6 µM (inactive) | 25.1 µM (inactive) | > 10 µM (inactive) | > 10 µM (inactive) | > 31.6 µM (inactive) | > 31.6 µM (inactive) | > 31.6 µM (inactive) | > 31.6 µM (inactive) | > 31.6 µM (inactive)
7 | CCC(=S)N(C)O | 17.8 µM (inactive) | 25 µM (inactive) | 0.828 µM (active) | 29.4 µM (inactive) | 0.41 µM (active) | 50.9 µM (inactive) | 10.6 µM (inactive) | 63.5 µM (inactive) | 4.09 µM (inactive) | 10.1 µM (inactive) | 39.3 µM (inactive) | 1.02 µM (active) | 40.3 µM (inactive) | 0.52 µM (active) | 8.69 µM (inactive) | 53.5 µM (inactive) | 57.4 µM (inactive) | 6.93 µM (inactive) | 1.88 µM (inactive) | 54.7 µM (inactive)
8 | C/C(CC(O)(C(F)(F)F)C(F)(F)F)=N\O | > 10 µM (inactive) | > 10 µM (inactive) | > 10 µM (inactive) | > 10 µM (inactive) | > 10 µM (inactive) | > 10 µM (inactive) | > 10 µM (inactive) | > 10 µM (inactive) | > 10 µM (inactive) | > 10 µM (inactive) | > 10 µM (inactive) | > 10 µM (inactive) | > 10 µM (inactive) | > 10 µM (inactive) | > 10 µM (inactive) | > 10 µM (inactive) | > 10 µM (inactive) | > 10 µM (inactive) | > 10 µM (inactive) | > 10 µM (inactive)
9 | CN(C)CCCNc1ncnc2c1ncn2C1OC(CO)C(O)C1O (stereo not given) | > 100 µM (inactive) | > 100 µM (inactive) | > 100 µM (inactive) | > 100 µM (inactive) | > 100 µM (inactive) | > 100 µM (inactive) | > 100 µM (inactive) | > 100 µM (inactive) | > 100 µM (inactive) | > 100 µM (inactive) | > 100 µM (inactive) | > 100 µM (inactive) | > 100 µM (inactive) | > 100 µM (inactive) | > 100 µM (inactive) | > 100 µM (inactive) | > 100 µM (inactive) | 93.5 µM (inactive) | 54.8 µM (inactive) | > 100 µM (inactive)
10 | O=c1[nH]/c(=C/c2cccs2)c(=O)[nH]/c1=C/c1ccc(OCc2ccccc2)cn1 | 0.0309 µM (active) | 0.59 µM (active) | 0.0618 µM (active) | 0.0561 µM (active) | 0.0171 µM (active) | 0.116 µM (active) | 57.1 µM (inactive) | 0.0661 µM (active) | 0.0361 µM (active) | 0.0398 µM (active) | 0.123 µM (active) | < 0.0142 µM (active) | 0.197 µM (active) | < 0.0156 µM (active) | 0.0431 µM (active) | 0.0197 µM (active) | 3.3 µM (inactive) | 0.219 µM (active) | 0.033 µM (active) | 0.312 µM (active)
11 | COc1ccc(NS(=O)(=O)c2ccc(NC(NC(=O)CC(C)C)(C(F)(F)F)C(F)(F)F)cc2)nn1 | > 100 µM (inactive) | > 100 µM (inactive) | > 100 µM (inactive) | > 100 µM (inactive) | > 100 µM (inactive) | > 100 µM (inactive) | > 100 µM (inactive) | > 100 µM (inactive) | > 100 µM (inactive) | > 100 µM (inactive) | > 100 µM (inactive) | > 100 µM (inactive) | > 100 µM (inactive) | > 100 µM (inactive) | > 100 µM (inactive) | > 100 µM (inactive) | > 100 µM (inactive) | > 100 µM (inactive) | > 100 µM (inactive) | > 100 µM (inactive)
12 | COc1cc2c(cc1C)NC(=O)/C2=C/c1c(Cl)[nH]c2cc(C)c(OC)cc12 | 2.15 µM (inactive) | 4.22 µM (inactive) | 3.98 µM (inactive) | 8.38 µM (inactive) | 5.25 µM (inactive) | 9.64 µM (inactive) | 2.42 µM (inactive) | 4.63 µM (inactive) | 3.64 µM (inactive) | 1.91 µM (inactive) | 0.395 µM (active) | 0.428 µM (active) | 5.98 µM (inactive) | 4.36 µM (inactive) | 4.23 µM (inactive) | 11.5 µM (inactive) | 8.13 µM (inactive) | 1.32 µM (inactive) | 1.45 µM (inactive) | 17.2 µM (inactive)
